Laboratory results taken from the Kinase Knowledgebase extract (Sharma et al. 2016).

How the values were obtained:
Assay in all cases: Enzyme Assay
[1] = molecular target: PIK3CA (human) (UniProt P42336)
[2] = molecular target: PIK3CD (Human) (UniProt O00329)
[3] = molecular target: PIK3CG (human) (UniProt P48736)
[4] = molecular target: PIK3CB (Human) (UniProt P42338)
Chain of PIK3CB (Human) (P42338 whole entry, looked up): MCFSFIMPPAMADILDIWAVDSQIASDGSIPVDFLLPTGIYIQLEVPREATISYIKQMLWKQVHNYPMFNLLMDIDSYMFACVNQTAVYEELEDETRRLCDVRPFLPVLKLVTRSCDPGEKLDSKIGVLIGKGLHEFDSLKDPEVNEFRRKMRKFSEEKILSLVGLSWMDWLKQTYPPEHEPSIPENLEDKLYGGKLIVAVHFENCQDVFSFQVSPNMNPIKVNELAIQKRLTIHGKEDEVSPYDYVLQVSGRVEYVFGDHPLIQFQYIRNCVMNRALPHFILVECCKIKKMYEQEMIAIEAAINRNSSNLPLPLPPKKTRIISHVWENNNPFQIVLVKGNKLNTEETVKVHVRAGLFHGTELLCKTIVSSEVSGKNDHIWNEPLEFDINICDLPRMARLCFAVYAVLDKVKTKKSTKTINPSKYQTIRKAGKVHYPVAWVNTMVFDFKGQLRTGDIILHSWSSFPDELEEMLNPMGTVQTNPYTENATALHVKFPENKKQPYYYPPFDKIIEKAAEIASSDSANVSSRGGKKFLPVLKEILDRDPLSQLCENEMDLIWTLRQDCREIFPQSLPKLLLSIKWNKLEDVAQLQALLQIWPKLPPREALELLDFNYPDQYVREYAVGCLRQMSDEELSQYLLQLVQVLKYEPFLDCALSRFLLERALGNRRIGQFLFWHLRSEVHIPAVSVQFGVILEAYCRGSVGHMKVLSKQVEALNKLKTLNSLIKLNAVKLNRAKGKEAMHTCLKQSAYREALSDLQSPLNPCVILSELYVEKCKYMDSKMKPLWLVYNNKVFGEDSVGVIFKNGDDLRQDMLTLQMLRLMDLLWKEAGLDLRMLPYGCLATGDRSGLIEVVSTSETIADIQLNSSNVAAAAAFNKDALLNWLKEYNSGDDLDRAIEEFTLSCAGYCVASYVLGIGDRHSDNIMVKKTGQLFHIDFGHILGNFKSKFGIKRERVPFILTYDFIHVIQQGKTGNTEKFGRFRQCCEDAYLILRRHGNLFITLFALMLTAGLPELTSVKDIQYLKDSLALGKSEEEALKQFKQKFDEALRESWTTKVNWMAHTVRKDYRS

Chain of PIK3CA (human) (P42336 whole entry, looked up): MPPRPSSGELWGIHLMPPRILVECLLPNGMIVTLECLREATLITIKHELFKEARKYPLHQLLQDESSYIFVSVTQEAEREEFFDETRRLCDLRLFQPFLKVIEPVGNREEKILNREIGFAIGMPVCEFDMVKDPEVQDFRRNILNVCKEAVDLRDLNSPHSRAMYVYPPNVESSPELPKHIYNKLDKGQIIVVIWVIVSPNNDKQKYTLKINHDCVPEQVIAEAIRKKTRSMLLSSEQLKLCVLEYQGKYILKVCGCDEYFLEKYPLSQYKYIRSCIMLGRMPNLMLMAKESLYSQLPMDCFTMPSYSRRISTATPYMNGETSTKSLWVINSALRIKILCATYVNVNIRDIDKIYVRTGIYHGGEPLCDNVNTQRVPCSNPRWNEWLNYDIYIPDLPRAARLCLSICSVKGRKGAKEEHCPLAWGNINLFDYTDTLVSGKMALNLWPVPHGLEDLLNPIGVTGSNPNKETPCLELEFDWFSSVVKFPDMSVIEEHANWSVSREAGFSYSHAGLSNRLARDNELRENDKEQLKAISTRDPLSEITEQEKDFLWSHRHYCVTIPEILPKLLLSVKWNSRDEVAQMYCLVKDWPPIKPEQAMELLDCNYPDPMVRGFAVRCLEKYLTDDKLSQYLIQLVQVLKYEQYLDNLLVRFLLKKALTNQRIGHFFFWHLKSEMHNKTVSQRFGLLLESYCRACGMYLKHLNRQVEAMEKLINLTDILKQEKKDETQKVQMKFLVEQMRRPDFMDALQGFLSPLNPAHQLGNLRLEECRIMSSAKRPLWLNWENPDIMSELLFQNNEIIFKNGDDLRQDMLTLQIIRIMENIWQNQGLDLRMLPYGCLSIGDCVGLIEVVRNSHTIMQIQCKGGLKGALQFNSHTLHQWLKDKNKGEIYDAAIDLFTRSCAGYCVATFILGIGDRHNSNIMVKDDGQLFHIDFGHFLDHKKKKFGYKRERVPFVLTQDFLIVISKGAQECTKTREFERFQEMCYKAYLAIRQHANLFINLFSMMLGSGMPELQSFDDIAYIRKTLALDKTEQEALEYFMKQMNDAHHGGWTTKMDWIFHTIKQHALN
Chain of PIK3CD (Human) (O00329 whole entry, looked up): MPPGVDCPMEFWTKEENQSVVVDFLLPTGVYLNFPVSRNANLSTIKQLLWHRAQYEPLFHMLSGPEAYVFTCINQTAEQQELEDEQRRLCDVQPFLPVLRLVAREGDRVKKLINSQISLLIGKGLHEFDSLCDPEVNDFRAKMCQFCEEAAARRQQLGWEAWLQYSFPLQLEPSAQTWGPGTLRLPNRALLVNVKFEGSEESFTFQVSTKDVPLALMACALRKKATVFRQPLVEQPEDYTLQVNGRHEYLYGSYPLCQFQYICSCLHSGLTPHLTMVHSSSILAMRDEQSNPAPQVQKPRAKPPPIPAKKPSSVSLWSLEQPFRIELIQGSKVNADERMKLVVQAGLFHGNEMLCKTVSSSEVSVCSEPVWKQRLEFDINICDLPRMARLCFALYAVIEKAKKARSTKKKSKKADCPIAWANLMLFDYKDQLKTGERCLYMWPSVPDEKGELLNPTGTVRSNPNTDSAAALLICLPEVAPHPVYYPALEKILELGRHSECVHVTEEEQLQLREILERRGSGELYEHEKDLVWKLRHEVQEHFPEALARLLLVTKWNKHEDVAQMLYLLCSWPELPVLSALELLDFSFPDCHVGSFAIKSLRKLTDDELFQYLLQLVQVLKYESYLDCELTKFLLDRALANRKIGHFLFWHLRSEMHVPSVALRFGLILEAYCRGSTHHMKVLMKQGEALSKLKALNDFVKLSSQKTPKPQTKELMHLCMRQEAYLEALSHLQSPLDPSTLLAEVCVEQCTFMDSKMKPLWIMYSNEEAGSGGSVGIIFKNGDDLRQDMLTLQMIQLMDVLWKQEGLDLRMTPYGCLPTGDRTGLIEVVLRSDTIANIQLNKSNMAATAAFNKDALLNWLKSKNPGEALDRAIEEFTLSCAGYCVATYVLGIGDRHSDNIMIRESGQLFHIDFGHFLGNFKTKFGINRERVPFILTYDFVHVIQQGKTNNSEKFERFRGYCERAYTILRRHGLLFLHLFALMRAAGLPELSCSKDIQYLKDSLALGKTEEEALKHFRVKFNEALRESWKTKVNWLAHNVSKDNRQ
Chain of PIK3CG (human) (P48736 whole entry, looked up): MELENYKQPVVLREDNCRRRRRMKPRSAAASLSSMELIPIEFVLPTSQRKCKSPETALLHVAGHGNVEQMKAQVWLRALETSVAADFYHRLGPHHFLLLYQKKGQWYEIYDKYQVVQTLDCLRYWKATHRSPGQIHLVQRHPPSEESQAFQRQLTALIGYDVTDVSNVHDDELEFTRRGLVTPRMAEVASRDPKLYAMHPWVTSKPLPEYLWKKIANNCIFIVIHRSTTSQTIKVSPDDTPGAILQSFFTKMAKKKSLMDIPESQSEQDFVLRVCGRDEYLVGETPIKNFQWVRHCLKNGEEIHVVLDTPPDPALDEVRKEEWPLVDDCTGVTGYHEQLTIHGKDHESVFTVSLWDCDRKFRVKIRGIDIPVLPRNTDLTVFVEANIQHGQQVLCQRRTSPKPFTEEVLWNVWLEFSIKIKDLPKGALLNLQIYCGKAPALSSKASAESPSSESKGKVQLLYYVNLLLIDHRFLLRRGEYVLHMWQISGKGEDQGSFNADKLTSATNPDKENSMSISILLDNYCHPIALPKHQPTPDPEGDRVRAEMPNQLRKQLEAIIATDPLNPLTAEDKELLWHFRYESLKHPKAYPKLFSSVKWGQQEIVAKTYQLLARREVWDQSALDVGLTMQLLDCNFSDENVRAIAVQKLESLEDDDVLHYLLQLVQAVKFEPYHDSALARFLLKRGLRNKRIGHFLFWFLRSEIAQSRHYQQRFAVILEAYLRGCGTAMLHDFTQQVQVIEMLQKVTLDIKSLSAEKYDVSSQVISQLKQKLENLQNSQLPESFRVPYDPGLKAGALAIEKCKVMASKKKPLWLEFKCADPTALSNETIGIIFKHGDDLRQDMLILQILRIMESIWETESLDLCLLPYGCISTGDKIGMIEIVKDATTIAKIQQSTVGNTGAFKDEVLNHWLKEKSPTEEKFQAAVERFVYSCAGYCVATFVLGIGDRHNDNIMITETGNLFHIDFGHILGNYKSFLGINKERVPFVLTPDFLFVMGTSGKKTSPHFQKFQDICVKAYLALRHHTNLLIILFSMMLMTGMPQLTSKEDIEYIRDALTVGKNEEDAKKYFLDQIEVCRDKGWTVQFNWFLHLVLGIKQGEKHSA

`CN(C)CCCNC(=O)c1cn2cc(-c3cccc4[nH]ncc34)nc(N3CCOCC3)c2n1` showed an IC50 [1] of 35 nM.
Molecule `CC1(C)CC(=O)c2sc(N3CCOc4ccccc43)nc2C1` has an IC50 [2] of 830 nM and an IC50 [3] of 610 nM.
`CS(=O)(=O)N1CCN(Cc2cc3nc(-c4cnc(N)nc4)nc(N4CCOCC4)c3s2)CC1` showed an IC50 [4] of 12 nM and an IC50 [2] of 16 nM.
For `Cc1c(Cl)cccc1Cn1c(SCC(=O)O)nc(=O)c2sc(N3CCOCC3)nc21`, the IC50 [2] was 3 nM.
With `CC(C)c1nc2ccccc2n1-c1nc(N2CCOCC2)c2nc(OC3CN(C4CCS(=O)(=O)CC4)C3)n(C)c2n1` the Ki [2] was 0.4 nM.
`CN(C)CCN(C)C(=O)c1ccc(NC(=O)Nc2ccc(-c3nc(N4CCOCC4)c4ccn(CC(F)(F)F)c4n3)cc2)cc1` showed an IC50 [1] of 2.4 nM.
Work on `O=C(c1ccccc1)c1ccc(N2CCOCC2)cc1O` yielded an IC50 [4] of 3700 nM.
With `CCOC(=O)c1ccc(-c2csc3c(=O)cc(N4CCOCC4)oc23)cc1` the IC50 [2] was 12 nM.
`Cc1c(OCCN2CCN(C)CC2)ccc2c(=O)nc(N3CCOCC3)oc12` was tested, and the IC50 [1] was ≥ 100000 nM.
For `N#Cc1c(N2CCOCC2)sc(-c2nc[nH]n2)c1-c1ccc(Cl)cc1Cl`, the IC50 [1] was 0.35 nM.
